Data on 29 compounds can be found in ChEMBL document CHEMBL5528068, “Structure-Activity Relationship Studies and Optimization of 4-Hydroxypyridones as GPR84 Agonists” (J Med Chem, 2024).

≈ marks a conversion by molar mass, not a printed value.

One may read the EC50 as the concentration at which the effect is half-maximal. The pKa is the pH at which an ionisable group is half protonated. Low values mean a group that gives up its proton readily, high ones a group that holds its proton tightly. Broadly, the solubility is the concentration that dissolves in the medium under given conditions. Read a high solubility as much dissolved substance. By Ki is commonly meant the dissociation constant of the complex between target and ligand, obtained from inhibition or displacement.

Data set [1] addresses T1, G-protein coupled receptor 84 (Homo sapiens, UniProt Q9NQS5). Kind of data set: Agonist activity at GPR84 (unknown origin) expressed in HTLA cells assessed as beta-arrestin recruitment incubated for 1 day by PRESTO-Tango assay. For orientation: Recruitment of arrestin is a read-out of receptor activation apart from second messengers.
The nature of data set [2]: Dissociation constant, pKa of compound by UV spectrophotometric analysis.
The nature of data set [3]: Solubility in PBS at pH 7.4 incubated for 24 hrs by HPLC analysis.
Data set [4] concerns the target T1, G-protein coupled receptor 84. Kind of data set: Agonist activity at GPR84 (unknown origin) expressed in doxycycline induced Flp-In-T-REx-293 cells transfected with GalphaI preincubated for 15 mins in presence of IBMX followed by forskolin stimulation for 45 mins by time-resolved fluorescence assay.
For data set [5] the target is unchanged. Kind of data set: Agonist activity at GPR84 (unknown origin) expressed in HEK293T cells expressing beta-arrestin 2-nanoluciferase incubated for 5 mins by beta-arrestin recruitment based BRET assay.
The target is the same in data set [6]. Kind of data set: Agonist activity at GPR84 (unknown origin) expressed in Flp-In-T-REx-293 cells transfected with GalphaI incubated for 1 hr by Topcount scintillation counting method.
Data set [7] has the same target. The data set is described as follows: Displacement of [3H]140 from GPR84 (unknown origin) expressed in Flp-In-T-REx-293 cells transfected with GalphaI incubated for 1 hr by liquid scintillation spectrometry analysis. A general note: Loss of bound radioactivity is the signal in a displacement assay; it reports binding, not function.

T1 sequence (Q9NQS5 whole entry): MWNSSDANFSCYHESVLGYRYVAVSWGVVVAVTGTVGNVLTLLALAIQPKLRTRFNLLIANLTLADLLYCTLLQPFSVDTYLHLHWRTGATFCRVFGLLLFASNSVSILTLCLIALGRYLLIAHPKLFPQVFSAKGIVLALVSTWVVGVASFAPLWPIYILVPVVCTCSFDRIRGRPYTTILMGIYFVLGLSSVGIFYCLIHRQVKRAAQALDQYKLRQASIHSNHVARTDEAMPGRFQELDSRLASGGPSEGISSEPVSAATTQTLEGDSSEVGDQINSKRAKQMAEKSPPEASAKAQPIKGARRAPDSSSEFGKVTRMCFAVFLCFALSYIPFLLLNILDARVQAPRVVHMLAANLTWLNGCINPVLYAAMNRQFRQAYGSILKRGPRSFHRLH

As for `CCCCCCCCCCCc1cc(O)cc(=O)[nH]1`, the EC50 in data set [1] is 0.427 nM.

On to `CCCCCCCc1cc(O)cc(O)n1`, for which, in data set [1], the EC50 is 0.0468 nM. This compound came in with a pKa in data set [2] of 6.68.

Consider `CCCCCCCCc1cc(O)cc(O)n1`, for which the concentration giving a half-maximal response (EC50) in data set [1] was 0.0275 nM.

In data set [3], `CCCCCCCCCc1cc(O)cc(O)n1` came in with a solubility at 24 h of 10 µM (≈ 2.37 µg/mL).

For the compound `CCCCCCCCNc1cc(O)cc(=O)[nH]1`, the EC50 in data set [1] was 3.31 nM.

For the compound `O=c1cc(O)cc(CCCOc2ccccc2)[nH]1`, the EC50 in data set [1] was 4.17 nM.

Take `O=C1c2ccccc2C(=O)N1CCCCc1cc(O)cc(=O)[nH]1`: the EC50 in data set [1] is 3240 nM.

Consider `CCCCc1ccc(-c2cc(O)cc(O)n2)cc1`, for which the concentration giving a half-maximal response (EC50) in data set [1] is 25.7 nM; in data set [4], 18.2 nM; in data set [5], 1620 nM; in data set [6] it was 63.1 nM. In data set [2], this compound came in with a pKa of 8.04.

Regarding `CCCC(=O)NCCCCc1cc(O)cc(=O)[nH]1`, the concentration giving a half-maximal response (EC50) in data set [1] was 23400 nM.

Consider `CCCCCc1ccc(-c2cc(O)cc(=O)[nH]2)cc1`, for which the EC50 in data set [1] was 12.6 nM; in data set [4], 19.5 nM; in data set [5] it was 2630 nM; in data set [6], 26.3 nM.

For `CCCc1ccc(CCc2cc(O)cc(=O)[nH]2)cc1`, the EC50 in data set [1] is 0.302 nM; in data set [4], 0.331 nM; in data set [5], 214 nM; in data set [6] it was 1.2 nM. The inhibition constant Ki in data set [7] was 13.5 nM.

`CCc1ccc(CCc2cc(O)cc(=O)[nH]2)cc1`: in data set [1], the half-maximal effective concentration (EC50) was 4.47 nM.

As for `O=c1cc(O)cc(CCc2cccc(-c3ccccc3)c2)[nH]1`, in data set [1], the EC50 is 4270 nM.

Compound `O=c1cc(O)cc(CCc2ccccc2)[nH]1` registered a pKa in data set [2] of 6.6.

Regarding `CCCCCCCCCCc1cc(O)cc(=O)[nH]1`, the EC50 in data set [1] was 0.24 nM.

Regarding `Cc1nnc(-c2ccc(-c3cc(O)cc(=O)[nH]3)cc2)o1`, the EC50 in data set [1] was 11700 nM.

`CCCc1ccc(COc2cc(O)cc(=O)[nH]2)cc1`: the EC50 in data set [1] is 3.24 nM.

As for `O=c1cc(O)cc(-c2ccc(Oc3ccccc3)nc2)[nH]1`, the concentration for a half-maximal effect (EC50) in data set [1] is 1.05 nM; in data set [4] it was 15.8 nM; in data set [5] it was 263 nM. This compound gave a Ki in data set [7] of 13.8 nM.

Consider `Cc1cccc(CCc2cc(O)cc(=O)[nH]2)c1`, for which, in data set [1], the EC50 was 389 nM.

As for `CCOc1ccc(CCc2cc(O)cc(=O)[nH]2)cc1`, the EC50 in data set [1] is 44.7 nM; in data set [4], 15.8 nM; in data set [5], 7240 nM; in data set [6], 33.1 nM.

Regarding `CC(C)Cc1ccc(CCc2cc(O)cc(=O)[nH]2)cc1`, the EC50 in data set [1] is 12.6 nM; in data set [4], 6.76 nM; in data set [5], 912 nM; in data set [6] it was 12 nM.

Consider `O=c1cc(O)cc(CCc2ccc3c(c2)Cc2ccccc2-3)[nH]1`, for which the figures for the EC50 in data set [1], in data set [4] and in data set [6] were 5010 nM, 1660 nM and 525 nM, respectively.

As to `CCCCCCCC#Cc1cc(O)cc(=O)[nH]1`, the EC50 in data set [1] is 5.75 nM; in data set [4] it was 14.5 nM; in data set [5] it was 550 nM; in data set [6], 24 nM.

Regarding `O=c1cc(O)cc(CCc2ccc(OC(F)(F)F)cc2)[nH]1`, in data set [1], the EC50 is 11 nM.

`Cc1ccc(CCc2cc(O)cc(=O)[nH]2)cc1`: the 50% effective concentration (EC50) in data set [1] is 13.8 nM.

`O=c1cc(O)cc(-c2ccc(Oc3cncnc3)nc2)[nH]1`: the 50% effective concentration (EC50) in data set [1] was 102 nM.

Take `CCCCCCCOc1cc(O)cc(=O)[nH]1`: the half-maximal effective concentration (EC50) in data set [1] was 1.32 nM.

As for `O=c1cc(O)cc(-c2ccc(Oc3ccccc3)cc2)[nH]1`, the 50% effective concentration (EC50) was 0.912 nM in data set [1], 1.26 nM in data set [4], 209 nM in data set [5] and 4.27 nM in data set [6]. Moreover, the inhibition constant Ki in data set [7] was 14.8 nM.

Regarding `CC(C)(C)c1ccc(CCc2cc(O)cc(=O)[nH]2)cc1`, the half-maximal effective concentration (EC50) in data set [1] was 2.95 nM.
